Data set [1] deals with T. b. brucei, T. cruzi, Leishmania infantum, Plasmodium falciparum. Briefly: In vitro biological evaluation against protozoa. It is filed as cell-based. The settings on record: in vitro protozoa panel.
The target of data set [2] is T1, TbMCA2 (Trypanosoma brucei brucei, UniProt Q8T8E7).
T1 sequence (Q8T8E7 1-347): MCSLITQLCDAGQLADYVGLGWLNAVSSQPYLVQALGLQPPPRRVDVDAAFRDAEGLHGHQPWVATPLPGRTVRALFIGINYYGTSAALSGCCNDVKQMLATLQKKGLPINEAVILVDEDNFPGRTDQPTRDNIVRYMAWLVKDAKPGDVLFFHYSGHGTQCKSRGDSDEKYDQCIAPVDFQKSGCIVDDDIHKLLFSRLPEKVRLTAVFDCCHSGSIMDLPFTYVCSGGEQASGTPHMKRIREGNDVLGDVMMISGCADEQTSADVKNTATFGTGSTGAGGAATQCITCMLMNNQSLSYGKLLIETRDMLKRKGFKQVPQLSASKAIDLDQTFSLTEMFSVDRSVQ
Put plainly: In vitro inhibition of TbMCA2. It is filed as biochemical. The settings on record: P1 tail modification / peptoid backbone.

Data set [3] concerns human lung fibroblasts (MRC-5). Briefly: Cytotoxicity on human lung fibroblasts. It is filed as cell-based.
Data set [4] relates to Plasmodium falciparum (ring stage and schizont). Briefly: In vitro antiparasitic evaluation against Plasmodium falciparum. It is filed as cell-based.

SMILES strings stand for the structures.

In the case of `N#C[C@H](CCCNC(=N)N)NC(=O)OCc1ccccc1` [Compound 1], the “Antiparasitic activity (in words)” value in data set [1] is “no antiparasitic activity”. Regarding `N#C[C@H](Cc1ccc(N)cc1)NC(=O)OCc1ccccc1` [Compound 2], the “Activity on TbMCA2 (in words)” value in data set [2] was “inactive”.

With `N#C[C@H](Cc1ccc(NC(=N)N)cc1)NC(=O)OCc1ccccc1` [Compound 3], in data set [2], the “Activity on TbMCA2 (in words)” value was “inactive”. Take `N=C(N)NCCC[C@H](NC(=O)OCc1ccccc1)C(=O)c1nc2ccccc2s1` [Compound 11]: the “Cytotoxicity (in words)” value in data set [3] is “without cytotoxicity”. Besides, in data set [4], the “Antiparasitic activity against P. falciparum (in words)” value was “very modest”. As for `Cn1c(C(=O)[C@H](CCCNC(=N)N)NC(=O)OCc2ccccc2)nc2ccccc21` [Compound 14], the “Antiparasitic activity against P. falciparum (in words)” value in data set [4] was “very modest”.

As to `N=C(N)NCCC[C@@H](/C=C/S(=O)(=O)c1ccccc1)NC(=O)OCc1ccccc1` [Compound 15], the “Antiparasitic activity against P. falciparum (in words)” value in data set [4] was “modest antiparasitic activity”. Regarding `NCCCC[C@H](NC(=O)OCc1ccccc1)C(=O)c1nc2ccccc2s1` [Compound 16], the “Antiparasitic activity (in words)” value in data set [1] is listed as “modest antiparasitic activities”. Same read-out and setting: as for `N=C(N)NCCCC[C@H](NC(=O)OCc1ccccc1)C(=O)c1nc2ccccc2s1` [Compound 17], the entry is “modest antiparasitic activities”.

The values above are taken from PMC2845880 (Bioorganic & medicinal chemistry letters, 2010).
